Test results: PMC4821163 (Organic letters, 2016)

Tests used:
[1] = tested on: MDA-MB-231; type: cell-based; conditions: IC50 MCF-10A divided by IC50 MDA-MB-231
[2] = tested on: MCF7; type: cell-based; conditions: IC50 MCF-10A divided by IC50 MCF7
[3] = tested on: HeLa; type: cell-based; conditions: for Selectivity index (SI) over MCF-10A cells: IC50 MCF-10A divided by IC50 HeLa
[4] = tested on: U937; type: cell-based; conditions: for Selectivity index (SI) over MCF-10A cells: IC50 MCF-10A divided by IC50 U937
[5] = tested on: Jurkat; type: cell-based; conditions: for Selectivity index (SI) over MCF-10A cells: IC50 MCF-10A divided by IC50 Jurkat
[6] = tested on: MCF-10A; type: cell-based; conditions: for Selectivity index (SI), overall statement: tested cancer cell lines, MCF-10A as reference nontumor cell line
[7] = tested on: NIH/3T3; type: cell-based; conditions: read-out: Cell cytotoxicity IC50; NIH/3T3 nontumor cell line
[8] = tested on: cancer cell lines; conditions: several cancer cell lines; cited from earlier work

CC(=O)O[C@H]1C(=O)[C@@]2(C)[C@H]([C@H](OC(=O)c3ccccc3)[C@]3(O)C[C@H](OC(=O)[C@H](O)[C@@H](NC(=O)c4ccccc4)c4ccccc4)C(C)=C1C3(C)C)[C@]1(OC(C)=O)CO[C@@H]1C[C@@H]2O [paclitaxel]
Selectivity index (SI) over MCF-10A cells [1]: 8.04 | Selectivity index (SI) over MCF-10A cells [2]: 3.73 | Selectivity index (SI) over MCF-10A cells [3]: 25.6 | Selectivity index (SI) over MCF-10A cells [4]: 15.2 | Selectivity index (SI) over MCF-10A cells [5]: 14.6 | Selectivity index (SI), overall statement [6]: good selectivity in general

C/C=C(\C)C(=O)O[C@@H]1[C@@H](O)[C@@H]2O[C@H]3[C@H](O[C@@H](CCCCC)CCCCCCC(=O)CCC(=O)OC[C@@H](O2)[C@H]1OC(=O)/C=C/c1ccccc1)O[C@H](C)[C@H](OC(C)=O)[C@@H]3O [ipomoeassin F]
Selectivity index (SI) over MCF-10A cells [1]: 0.83 | Selectivity index (SI) over MCF-10A cells [2]: 0.12 | Selectivity index (SI) over MCF-10A cells [3]: 0.33 | IC50 ([3]; read-out: Cell cytotoxicity IC50, HeLa cells): 16.4 nM | Selectivity index (SI) over MCF-10A cells [4]: 1 | IC50 ([4]; read-out: Cell cytotoxicity IC50, U937 cells): 5.4 nM | Selectivity index (SI) over MCF-10A cells [5]: 0.89 | IC50 ([5]; read-out: Cell cytotoxicity IC50, Jurkat cells): 6.1 nM | IC50 ([6]; read-out: Cell cytotoxicity IC50, MCF-10A nontumor cell line): 5.4 nM | Selectivity index (SI), overall statement [6]: < 1 | IC50 [7]: 16.8 nM | IC50 values against cancer cell growth, in words [8]: single-digit nanomolar range
